Assay results: PubChem BioAssay AID330 (DTP/NCI, 2004)
Values joined by “and” are separate entries in the source; they are usually repeats but may differ in a detail not shown here. Equal values may be shown once. Toxic doses and inconclusive results are not listed. Rule for the calls: active = survival T/C of 150% or more; inactive = T/C below 125% in these data.

Test system: P388 leukemia ip, CD2F1 mice, survival T/C
Assay: NCI In Vivo Anticancer Drug Screen. Data for tumor model P388 Leukemia (intraperitoneal) in CD2F1 (CDF1) mice
Conditions: endpoint: median survival time, higher = longer survival
Summary of the method: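 Mice carrying the transplanted tumor received test compound or vehicle. Survival was recorded in each group, and the value is the treated-group measurement divided by that of the vehicle-treated control group.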

[1] = dose: 25.0 mg/kg/injection, schedule: Q01DX005 (ip), vehicle: saline with Tween-80
[2] = dose: 50.0 mg/kg/injection, schedule: Q01DX005 (ip), vehicle: saline with Tween-80
[3] = dose: 100.0 mg/kg/injection, schedule: Q01DX005 (ip), vehicle: saline with Tween-80
[4] = dose: 200.0 mg/kg/injection, schedule: Q01DX005 (ip), vehicle: saline with Tween-80
[5] = dose: 100.0 mg/kg/injection, schedule: Q04DX002 (ip), vehicle: saline with Tween-80
[6] = dose: 200.0 mg/kg/injection, schedule: Q04DX002 (ip), vehicle: saline with Tween-80
[7] = dose: 400.0 mg/kg/injection, schedule: Q04DX002 (ip), vehicle: saline with Tween-80
[8] = dose: 50.0 mg/kg/injection, schedule: Q01DX009 (ip), vehicle: Klucel (hydroxypropylcellulose) (HPC)
[9] = dose: 100.0 mg/kg/injection, schedule: Q01DX009 (ip), vehicle: Klucel (hydroxypropylcellulose) (HPC)
[10] = dose: 200.0 mg/kg/injection, schedule: Q01DX009 (ip), vehicle: Klucel (hydroxypropylcellulose) (HPC)
[11] = dose: 60.0 mg/kg/injection, schedule: Q01DX005 (ip), vehicle: saline with Tween-80
[12] = dose: 120.0 mg/kg/injection, schedule: Q01DX005 (ip), vehicle: saline with Tween-80
[13] = dose: 240.0 mg/kg/injection, schedule: Q01DX005 (ip), vehicle: saline with Tween-80
[14] = dose: 50.0 mg/kg/injection, schedule: Q01DX005 (ip), vehicle: Klucel (hydroxypropylcellulose) (HPC)
[15] = dose: 100.0 mg/kg/injection, schedule: Q01DX005 (ip), vehicle: Klucel (hydroxypropylcellulose) (HPC)
[16] = dose: 200.0 mg/kg/injection, schedule: Q01DX005 (ip), vehicle: Klucel (hydroxypropylcellulose) (HPC)
[17] = dose: 50.0 mg/kg/injection, schedule: Q01DX001 (ip), vehicle: Klucel (hydroxypropylcellulose) (HPC)
[18] = dose: 100.0 mg/kg/injection, schedule: Q01DX001 (ip), vehicle: Klucel (hydroxypropylcellulose) (HPC)

Measured: T/C

CC12CCC(C=C1N1CCOCC1)C(C)(C)O2 (configuration not stated)
inactive: [1] 97 % of control | dose: 25.0 mg/kg/injection, schedule: Q01DX005 (ip), vehicle: saline 100 % of control | [2] 103 % of control | dose: 50.0 mg/kg/injection, schedule: Q01DX005 (ip), vehicle: saline 102 % of control | [3] 94 % of control | dose: 100.0 mg/kg/injection, schedule: Q01DX005 (ip), vehicle: saline 100 % of control | [4] 94 % of control | dose: 200.0 mg/kg/injection, schedule: Q01DX005 (ip), vehicle: saline 99 % of control

COc1ccc(/C=N\N=C(/[O-])c2ccc(Cl)cc2)cc1.COc1ccc(/C=N\N=C(/[O-])c2ccc(Cl)cc2)cc1.[Co+2].[OH3+].[OH3+]
inactive: [5] 93 % of control | [6] 102 % of control | [7] 103 % of control

O=C1CCCCCCCCCCCCCCO1
inactive: [8] 97 % of control | [9] 106 % of control | [10] 102 % of control | dose: 400.0 mg/kg/injection, schedule: Q01DX009 (ip), vehicle: Klucel (hydroxypropylcellulose) (HPC) 106 % of control

CC(N)CCc1ccccc1 (configuration not stated)
inactive: dose: 12.5 mg/kg/injection, schedule: Q01DX009 (ip), vehicle: saline sonified 100 % of control | dose: 25.0 mg/kg/injection, schedule: Q01DX009 (ip), vehicle: saline sonified 100 % of control | dose: 50.0 mg/kg/injection, schedule: Q01DX009 (ip), vehicle: saline sonified 100 % of control

COc1ccc(CCN2C(=O)C(=O)N(c3ccc(Cl)c(Cl)c3)C2=O)cc1OC
inactive: [8] 102 % of control | [9] 97 % of control | [10] 103 % of control

CCCCC1=C(O)c2ccccc2C(=NC(CO)(CO)CO)C1=O
inactive: [2] 103 % of control | [3] 110 % of control | [4] 100 % of control

CC1CC[N-]C(C)C1.CN(C)C=O.[Cl][Pt][Cl] (configuration not stated)
inactive: dose: 1.56 mg/kg/injection, schedule: Q01DX009 (ip), vehicle: saline with Tween-80 114 % of control | dose: 3.13 mg/kg/injection, schedule: Q01DX009 (ip), vehicle: saline with Tween-80 124 % of control

COc1nc(NC2OC(COC(C)=O)C(OC(C)=O)C(OC(C)=O)C2OC(C)=O)c(C(=O)CCl)c(=O)[nH]1 (configuration not stated)
inactive: [11] 93 % of control | [12] 90 % of control | [13] 101 % of control

O=C1S/C(=C2\C(=O)N(CN3CCOCC3)c3ccc(Br)cc32)C(=O)N1CN1CCOCC1
inactive: [14] 100 % of control | [15] 106 % of control | [16] 102 % of control

CS(=O)(=O)ON1C(=O)c2ccccc2C1=O
inactive: dose: 25.0 mg/kg/injection, schedule: Q04DX003 (ip), vehicle: Klucel (hydroxypropylcellulose) (HPC) 104 % of control and 108 % of control | dose: 50.0 mg/kg/injection, schedule: Q04DX003 (ip), vehicle: Klucel (hydroxypropylcellulose) (HPC) 105 % of control and 110 % of control | dose: 100.0 mg/kg/injection, schedule: Q04DX003 (ip), vehicle: Klucel (hydroxypropylcellulose) (HPC) 103 % of control and 95 % of control | dose: 200.0 mg/kg/injection, schedule: Q04DX003 (ip), vehicle: Klucel (hydroxypropylcellulose) (HPC) 100 % of control

O=C1COC(C(O)(c2ccccc2)c2ccccc2)C(=O)N1 (configuration not stated)
inactive: [11] 107 % of control | [12] 102 % of control | [13] 98 % of control

O=C1CSC(=S)N1c1ccc(C(F)(F)F)cc1
inactive: dose: 25.0 mg/kg/injection, schedule: Q01DX001 (ip), vehicle: Klucel (hydroxypropylcellulose) (HPC) 93 % of control | [17] 99 % of control | [18] 110 % of control

COc1ccccc1C1OC2=C(Nc3ccccc3N2)C1=O (configuration not stated)
inactive: dose: 30.0 mg/kg/injection, schedule: Q01DX005 (ip), vehicle: Klucel (hydroxypropylcellulose) (HPC) 101 % of control | dose: 60.0 mg/kg/injection, schedule: Q01DX005 (ip), vehicle: Klucel (hydroxypropylcellulose) (HPC) 97 % of control and 98 % of control | dose: 120.0 mg/kg/injection, schedule: Q01DX005 (ip), vehicle: Klucel (hydroxypropylcellulose) (HPC) 91 % of control | dose: 240.0 mg/kg/injection, schedule: Q01DX005 (ip), vehicle: Klucel (hydroxypropylcellulose) (HPC) 92 % of control

CN1CCO[Si](C)(C)C[Si](C)(C)OCC1
inactive: dose: 60.0 mg/kg/injection, schedule: Q01DX005 (ip), vehicle: saline 103 % of control | dose: 120.0 mg/kg/injection, schedule: Q01DX005 (ip), vehicle: saline 102 % of control | dose: 240.0 mg/kg/injection, schedule: Q01DX005 (ip), vehicle: saline 105 % of control

COc1ccc2c(O)c(S(=O)(=O)c3ccc(C)cc3)c(=O)oc2c1
inactive: [11] 92 % of control | [12] 104 % of control | [13] 115 % of control

O=C(OC(Cc1ccccc1)C(=O)O)c1ccc([N+](=O)[O-])cc1 (configuration not stated)
inactive: [17] 97 % of control | [18] 111 % of control | dose: 200.0 mg/kg/injection, schedule: Q01DX001 (ip), vehicle: Klucel (hydroxypropylcellulose) (HPC) 109 % of control

CN(CCN(C)C(=S)Cl)C(=S)Cl
inactive: [8] 99 % of control | [9] 100 % of control | [10] 96 % of control

CCCCC1(CCCCCCCCC(=O)OCC)OCCO1
inactive: [14] 96 % of control | [15] 97 % of control | [16] 97 % of control

CC1C(=O)CCC2C1(C)CCC1C2(C)CCC2(C)C3CC(C)(C(=O)O)CCC3(C)CCC12C (configuration not stated)
inactive: dose: 12.5 mg/kg/injection, schedule: Q01DX005 (ip), vehicle: Klucel (hydroxypropylcellulose) (HPC) 94 % of control | dose: 25.0 mg/kg/injection, schedule: Q01DX005 (ip), vehicle: Klucel (hydroxypropylcellulose) (HPC) 100 % of control | [14] 88 % of control | [15] 87 % of control

CC(=O)O.CC(=O)[O-].CC(=O)[O-].[Co+3].[NH-]CC[NH-].[NH-]CC[NH-]
inactive: dose: 100.0 mg/kg/injection, schedule: Q01DX009 (ip), vehicle: saline 100 % of control

O=C1CCSC(=O)N1c1ccc(F)cc1
inactive: [5] 100 % of control | [6] 105 % of control | [7] 99 % of control

CC(C)OC(=S)SCC(=O)c1ccc(Br)cc1
inactive: dose: 50.0 mg/kg/injection, schedule: Q01DX009 (ip), vehicle: saline with Tween-80 114 % of control | dose: 100.0 mg/kg/injection, schedule: Q01DX009 (ip), vehicle: saline with Tween-80 107 % of control | dose: 200.0 mg/kg/injection, schedule: Q01DX009 (ip), vehicle: saline with Tween-80 106 % of control

O=C(Nc1ncnc2nc[nH]c12)NC1CCCCC1
inactive: dose: 0.75 mg/kg/injection, schedule: Q01DX005 (ip), vehicle: saline 106 % of control | dose: 1.5 mg/kg/injection, schedule: Q01DX005 (ip), vehicle: saline 98 % of control | dose: 3.0 mg/kg/injection, schedule: Q01DX005 (ip), vehicle: saline 95 % of control | dose: 6.25 mg/kg/injection, schedule: Q01DX005 (ip), vehicle: saline with Tween-80 89 % of control | dose: 12.5 mg/kg/injection, schedule: Q01DX005 (ip), vehicle: saline with Tween-80 98 % of control | [1] 86 % of control | [2] 109 % of control

CC(=O)OC1C/C(C)=C/CCC(C)/C=C/C2(C)CCC(C(C)(C)O)C12 (configuration not stated)
inactive: dose: 8.0 mg/kg/injection, schedule: Q01DX009 (ip), vehicle: Klucel (hydroxypropylcellulose) (HPC) 105 % of control | dose: 16.0 mg/kg/injection, schedule: Q01DX009 (ip), vehicle: Klucel (hydroxypropylcellulose) (HPC) 106 % of control | dose: 32.0 mg/kg/injection, schedule: Q01DX009 (ip), vehicle: Klucel (hydroxypropylcellulose) (HPC) 106 % of control | dose: 64.0 mg/kg/injection, schedule: Q01DX009 (ip), vehicle: Klucel (hydroxypropylcellulose) (HPC) 106 % of control

N#CN=C1N=S(=O)(c2ccccc2)c2ccccc21 (configuration not stated)
inactive: [8] 103 % of control | [9] 100 % of control | [10] 101 % of control

CC(C)CNC1=CC(=O)c2ccccc2C1=O
inactive: dose: 50.0 mg/kg/injection, schedule: Q04DX003 (ip), vehicle: saline with Tween-80 106 % of control | dose: 100.0 mg/kg/injection, schedule: Q04DX003 (ip), vehicle: saline with Tween-80 108 % of control | dose: 200.0 mg/kg/injection, schedule: Q04DX003 (ip), vehicle: saline with Tween-80 92 % of control

C=C(C)C(=O)N(C)c1nc(N(C)C)nc(N(C)C)n1
inactive: [14] 101 % of control | [15] 103 % of control | [16] 103 % of control
